# In PubChem BioAssay AID1259407 (Chemical Carcinogenesis Research Information System (CCRIS), 2018):
# Active and inactive are the calls of the source. The rule behind the calls is not given here.
# Test system: CCRIS mutagenicity, Ames/micronucleus/aberration tests
# Test: CCRIS mutagenicity studies
compound,measurement,setting,value
O=[N+]([O-])c1ccc(O)c([N+](=O)[O-])c1,mutagenic call,"End Point: IN VITRO CHROMOSOMAL ABERRATIONS, Test System: CHO CELLS, Metabolic Activation: NONE",active; positive
same,mutagenic call,"End Point: IN VITRO CHROMOSOMAL ABERRATIONS, Test System: HUMAN PERIPHERAL LYMPHOCYTES, Metabolic Activation: NONE",active; positive
same,mutagenic call,"End Point: IN VITRO CHROMOSOMAL ABERRATIONS, Test System: TK6 HUMAN LYMPHOBLASTS, Metabolic Activation: NONE",inactive; negative
same,mutagenic call,"End Point: In vitro micronucleus, Test System: Mouse lymphoma L5178Y cells, Metabolic Activation: None",active; positive
same,mutagenic call,"Test System: AMES SALMONELLA TYPHIMURIUM, Strain/Indicator: TA97, Metabolic Activation: HAMSTER, LIVER, S-9, AROCLOR 1254 (10%), Method: PREINCUBATION",inactive; negative
same,mutagenic call,"Test System: AMES SALMONELLA TYPHIMURIUM, Strain/Indicator: TA97, Metabolic Activation: HAMSTER, LIVER, S-9, AROCLOR 1254 (30%), Method: PREINCUBATION",inactive; negative
same,mutagenic call,"Test System: AMES SALMONELLA TYPHIMURIUM, Strain/Indicator: TA97, Metabolic Activation: NONE, Method: PREINCUBATION",inactive; negative
same,mutagenic call,"Test System: AMES SALMONELLA TYPHIMURIUM, Strain/Indicator: TA97, Metabolic Activation: RAT, LIVER, S-9, AROCLOR 1254 (10%), Method: PREINCUBATION",inactive; negative
same,mutagenic call,"Test System: AMES SALMONELLA TYPHIMURIUM, Strain/Indicator: TA97, Metabolic Activation: RAT, LIVER, S-9, AROCLOR 1254 (30%), Method: PREINCUBATION",inactive; negative
same,mutagenic call,"Test System: AMES SALMONELLA TYPHIMURIUM, Strain/Indicator: TA98, Metabolic Activation: HAMSTER, LIVER, S-9, AROCLOR 1254 (10%), Method: PREINCUBATION",inactive; negative
same,mutagenic call,"Test System: AMES SALMONELLA TYPHIMURIUM, Strain/Indicator: TA98, Metabolic Activation: HAMSTER, LIVER, S-9, AROCLOR 1254 (30%), Method: PREINCUBATION",inactive; negative
same,mutagenic call,"Test System: AMES SALMONELLA TYPHIMURIUM, Strain/Indicator: TA98, Metabolic Activation: NONE, Method: PREINCUBATION",inactive; negative
same,mutagenic call,"Test System: AMES SALMONELLA TYPHIMURIUM, Strain/Indicator: TA98, Metabolic Activation: RAT, LIVER, S-9, AROCLOR 1254 (10%), Method: PREINCUBATION",inactive; negative
same,mutagenic call,"Test System: AMES SALMONELLA TYPHIMURIUM, Strain/Indicator: TA98, Metabolic Activation: RAT, LIVER, S-9, AROCLOR 1254 (30%), Method: PREINCUBATION",inactive; negative
same,mutagenic call,"Test System: AMES SALMONELLA TYPHIMURIUM, Strain/Indicator: TA98, Metabolic Activation: RAT, LIVER, S-9, KANECHLOR 500, Method: PREINCUBATION",inactive; negative
same,mutagenic call,"Test System: AMES SALMONELLA TYPHIMURIUM, Strain/Indicator: TA98, Metabolic Activation: RAT, LIVER, S-9, PHENOBARBITAL AND BETA-NAPHTHOFLAVONE, Method: PREINCUBATION",inactive; negative
same,mutagenic call,"Test System: AMES SALMONELLA TYPHIMURIUM, Strain/Indicator: TA100, Metabolic Activation: HAMSTER, LIVER, S-9, AROCLOR 1254 (10%), Method: PREINCUBATION",inactive; negative
same,mutagenic call,"Test System: AMES SALMONELLA TYPHIMURIUM, Strain/Indicator: TA100, Metabolic Activation: HAMSTER, LIVER, S-9, AROCLOR 1254 (30%), Method: PREINCUBATION",inactive; negative
same,mutagenic call,"Test System: AMES SALMONELLA TYPHIMURIUM, Strain/Indicator: TA100, Metabolic Activation: NONE, Method: PREINCUBATION",inactive; negative
same,mutagenic call,"Test System: AMES SALMONELLA TYPHIMURIUM, Strain/Indicator: TA100, Metabolic Activation: RAT, LIVER, S-9, AROCLOR 1254 (10%), Method: PREINCUBATION",inactive; negative
same,mutagenic call,"Test System: AMES SALMONELLA TYPHIMURIUM, Strain/Indicator: TA100, Metabolic Activation: RAT, LIVER, S-9, AROCLOR 1254 (30%), Method: PREINCUBATION",inactive; negative
same,mutagenic call,"Test System: AMES SALMONELLA TYPHIMURIUM, Strain/Indicator: TA100, Metabolic Activation: RAT, LIVER, S-9, KANECHLOR 500, Method: PREINCUBATION",inactive; negative
same,mutagenic call,"Test System: AMES SALMONELLA TYPHIMURIUM, Strain/Indicator: TA100, Metabolic Activation: RAT, LIVER, S-9, PHENOBARBITAL AND BETA-NAPHTHOFLAVONE, Method: PREINCUBATION",inactive; negative
same,mutagenic call,"Test System: AMES SALMONELLA TYPHIMURIUM, Strain/Indicator: TA102, Metabolic Activation: NONE, Method: PREINCUBATION",inactive; negative
same,mutagenic call,"Test System: AMES SALMONELLA TYPHIMURIUM, Strain/Indicator: TA102, Metabolic Activation: RAT, LIVER, S-9, PHENOBARBITAL AND BETA-NAPHTHOFLAVONE, Method: PREINCUBATION",inactive; negative
same,mutagenic call,"Test System: AMES SALMONELLA TYPHIMURIUM, Strain/Indicator: TA104, Metabolic Activation: NONE, Method: PREINCUBATION",inactive; negative
same,mutagenic call,"Test System: AMES SALMONELLA TYPHIMURIUM, Strain/Indicator: TA104, Metabolic Activation: RAT, LIVER, S-9, PHENOBARBITAL AND BETA-NAPHTHOFLAVONE, Method: PREINCUBATION",inactive; negative
same,mutagenic call,"Test System: AMES SALMONELLA TYPHIMURIUM, Strain/Indicator: TA1535, Metabolic Activation: HAMSTER, LIVER, S-9, AROCLOR 1254 (10%), Method: PREINCUBATION",inactive; negative
same,mutagenic call,"Test System: AMES SALMONELLA TYPHIMURIUM, Strain/Indicator: TA1535, Metabolic Activation: HAMSTER, LIVER, S-9, AROCLOR 1254 (30%), Method: PREINCUBATION",inactive; negative
same,mutagenic call,"Test System: AMES SALMONELLA TYPHIMURIUM, Strain/Indicator: TA1535, Metabolic Activation: RAT, LIVER, S-9, AROCLOR 1254 (10%), Method: PREINCUBATION",inactive; negative
same,mutagenic call,"Test System: AMES SALMONELLA TYPHIMURIUM, Strain/Indicator: TA1535, Metabolic Activation: RAT, LIVER, S-9, AROCLOR 1254 (30%), Method: PREINCUBATION",inactive; negative
same,mutagenic call,"Test System: AMES SALMONELLA TYPHIMURIUM, Strain/Indicator: TA1535, Metabolic Activation: RAT, LIVER, S-9, PHENOBARBITAL AND BETA-NAPHTHOFLAVONE, Method: PREINCUBATION",inactive; negative
same,mutagenic call,"Test System: AMES SALMONELLA TYPHIMURIUM, Strain/Indicator: TA1537, Metabolic Activation: HAMSTER, LIVER, S-9, AROCLOR 1254 (30%), Method: PREINCUBATION",inactive; negative
same,mutagenic call,"Test System: AMES SALMONELLA TYPHIMURIUM, Strain/Indicator: TA1537, Metabolic Activation: NONE, Method: PREINCUBATION",inactive; negative
same,mutagenic call,"Test System: AMES SALMONELLA TYPHIMURIUM, Strain/Indicator: TA1537, Metabolic Activation: RAT, LIVER, S-9, AROCLOR 1254 (30%), Method: PREINCUBATION",inactive; negative
same,mutagenic call,"Test System: AMES SALMONELLA TYPHIMURIUM, Strain/Indicator: TA1537, Metabolic Activation: RAT, LIVER, S-9, PHENOBARBITAL AND BETA-NAPHTHOFLAVONE, Method: PREINCUBATION",inactive; negative
same,mutagenic call,"Test System: E. COLI, Strain/Indicator: WP2UVRA/PKM101, Metabolic Activation: NONE, Method: PREINCUBATION",inactive; negative
same,mutagenic call,"Test System: E. COLI, Strain/Indicator: WP2UVRA/PKM101, Metabolic Activation: RAT, LIVER, S-9, PHENOBARBITAL AND BETA-NAPHTHOFLAVONE, Method: PREINCUBATION",inactive; negative
same,mutagenic call,"Test System: E. COLI, Strain/Indicator: WP2UVRA, Metabolic Activation: NONE, Method: PREINCUBATION",inactive; negative
same,mutagenic call,"Test System: E. COLI, Strain/Indicator: WP2UVRA, Metabolic Activation: RAT, LIVER, S-9, PHENOBARBITAL AND BETA-NAPHTHOFLAVONE, Method: PREINCUBATION",inactive; negative
same,mutagenic call,"Test System: Mouse lymphoma, Strain/Indicator: L5178Y (tk+/tk-)/Trifluorothymidine, Metabolic Activation: None, Method: Microtiter",active; positive
